The source of these data is ChEMBL document CHEMBL5725962, “Pyrazolo[1,5-A]PYRAZIN-4-YL derivatives” (2018).

As usually defined, the IC50 is the concentration that inhibits the measured activity by half.

Test [1] has as its target Non-receptor tyrosine-protein kinase TYK2 (Homo sapiens, UniProt P29597). The test is described as follows: (§1) JAK Caliper Enzyme Assay at 1 mM ATP: Compounds were added to a 384-well plate. Reaction mixtures contained 10 mM HEPES, pH 7.4, 10 mM MgCl2, 0.01% BSA, 0.0005% Tween 20, 1 mM ATP and 1 μM peptide substrate. The JAK1 and TYK2 assays contained 1 μM of the IRStide peptide (5FAM-[…]) and the JAK2 and JAK3 assays contained 1 μM of the JAKtide peptide (FITC-[…]). The assays were initiated by the addition of 20 nM JAK1, 1 nM JAK2, 1 nM JAK or 1 nM TYK2 enzyme and were incubated at room temperature for three hours for JAK1, 60 minutes for JAK2, 75 minutes for JAK3 or 135 minutes for TYK2. Enzyme concentrations and incubation times were optimized for each new enzyme preps and were modified slightly over time to ensure 20% to 30% phosphorylation. The assays were stopped with 15 μL of 180 mM HEPES, pH 7.4, 20 mM EDTA, and 0.2% Coating Reagent 3. The assay plates were placed on a Caliper Life Science LC3000 instrument, and each well was sampled using appropriate separation conditions to measure the unphosphorylated and phosphorylated peptide.

In test [2] the target is Tyrosine-protein kinase JAK1 (Homo sapiens, UniProt P23458). The test is described as §1.
Tyrosine-protein kinase JAK1, sequence (P23458 whole entry): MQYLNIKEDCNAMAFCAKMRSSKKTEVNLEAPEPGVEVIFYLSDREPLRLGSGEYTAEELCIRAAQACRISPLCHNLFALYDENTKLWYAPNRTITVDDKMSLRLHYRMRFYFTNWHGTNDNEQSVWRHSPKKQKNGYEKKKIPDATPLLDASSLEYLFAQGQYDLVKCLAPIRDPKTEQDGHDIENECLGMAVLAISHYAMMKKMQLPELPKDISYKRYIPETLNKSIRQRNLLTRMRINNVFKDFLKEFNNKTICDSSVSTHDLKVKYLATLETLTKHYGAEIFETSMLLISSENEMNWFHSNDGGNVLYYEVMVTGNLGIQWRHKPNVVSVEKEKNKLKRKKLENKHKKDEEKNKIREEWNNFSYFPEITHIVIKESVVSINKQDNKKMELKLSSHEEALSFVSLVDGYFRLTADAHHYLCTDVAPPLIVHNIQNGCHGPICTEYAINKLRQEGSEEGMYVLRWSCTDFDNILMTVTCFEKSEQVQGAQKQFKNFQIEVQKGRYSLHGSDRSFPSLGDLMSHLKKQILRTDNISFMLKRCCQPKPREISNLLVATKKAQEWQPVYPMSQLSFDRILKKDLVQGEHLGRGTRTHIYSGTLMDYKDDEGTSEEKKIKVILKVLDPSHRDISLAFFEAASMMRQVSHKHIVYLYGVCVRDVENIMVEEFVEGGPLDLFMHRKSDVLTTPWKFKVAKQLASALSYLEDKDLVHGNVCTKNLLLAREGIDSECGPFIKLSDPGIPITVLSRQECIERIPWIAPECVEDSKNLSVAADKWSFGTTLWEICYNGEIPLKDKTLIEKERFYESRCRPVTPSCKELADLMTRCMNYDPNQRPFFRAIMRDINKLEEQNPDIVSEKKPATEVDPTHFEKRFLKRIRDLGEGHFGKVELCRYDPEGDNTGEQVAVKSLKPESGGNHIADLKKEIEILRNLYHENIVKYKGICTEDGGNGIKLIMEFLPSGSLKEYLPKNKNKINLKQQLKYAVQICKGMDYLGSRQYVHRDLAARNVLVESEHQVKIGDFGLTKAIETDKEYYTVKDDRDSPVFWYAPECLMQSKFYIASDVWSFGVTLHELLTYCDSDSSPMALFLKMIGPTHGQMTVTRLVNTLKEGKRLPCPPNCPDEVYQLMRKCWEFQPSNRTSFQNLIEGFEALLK
The target of test [3] is T1, Tyrosine-protein kinase JAK3 (Homo sapiens, UniProt P52333).
T1 sequence (P52333 whole entry): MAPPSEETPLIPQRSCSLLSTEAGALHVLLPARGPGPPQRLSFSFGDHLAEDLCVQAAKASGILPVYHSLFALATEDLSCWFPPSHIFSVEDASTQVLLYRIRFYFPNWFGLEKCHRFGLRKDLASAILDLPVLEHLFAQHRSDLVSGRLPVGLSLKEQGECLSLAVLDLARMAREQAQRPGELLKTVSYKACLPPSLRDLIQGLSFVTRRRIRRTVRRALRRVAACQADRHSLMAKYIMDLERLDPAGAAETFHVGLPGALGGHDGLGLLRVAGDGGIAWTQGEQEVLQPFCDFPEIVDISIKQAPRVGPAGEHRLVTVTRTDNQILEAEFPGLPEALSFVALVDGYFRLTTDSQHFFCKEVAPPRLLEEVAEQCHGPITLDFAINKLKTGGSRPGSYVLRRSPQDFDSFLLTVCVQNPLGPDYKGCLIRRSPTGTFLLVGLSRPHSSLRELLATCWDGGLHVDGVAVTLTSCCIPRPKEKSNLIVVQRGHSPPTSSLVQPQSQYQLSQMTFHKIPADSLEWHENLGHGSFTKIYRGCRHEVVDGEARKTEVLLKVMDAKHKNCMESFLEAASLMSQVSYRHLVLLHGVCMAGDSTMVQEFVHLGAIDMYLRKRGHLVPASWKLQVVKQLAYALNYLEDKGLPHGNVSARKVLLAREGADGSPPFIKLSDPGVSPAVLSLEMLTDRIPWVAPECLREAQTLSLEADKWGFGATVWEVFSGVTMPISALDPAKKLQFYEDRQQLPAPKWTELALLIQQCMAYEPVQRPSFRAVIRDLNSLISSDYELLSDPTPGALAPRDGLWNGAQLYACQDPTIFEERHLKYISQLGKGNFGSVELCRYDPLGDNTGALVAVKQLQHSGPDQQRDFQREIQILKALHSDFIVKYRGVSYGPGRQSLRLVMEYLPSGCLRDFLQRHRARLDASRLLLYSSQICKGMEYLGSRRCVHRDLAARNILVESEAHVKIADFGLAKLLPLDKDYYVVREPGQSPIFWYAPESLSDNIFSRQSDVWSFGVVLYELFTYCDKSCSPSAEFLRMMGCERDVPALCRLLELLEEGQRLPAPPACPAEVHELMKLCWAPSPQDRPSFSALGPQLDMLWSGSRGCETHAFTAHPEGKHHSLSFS
The description is as §1.

The target of test [4] is Tyrosine-protein kinase JAK2 (Homo sapiens, UniProt O60674). Put plainly: Reaction mixtures contained 10 mM HEPES, pH 7.4, 10 mM MgCl2, 0.01% BSA, 0.0005% Tween 20, 1 mM ATP and 1 μM peptide substrate. […] Enzyme concentrations and incubation times were optimized for each new enzyme preps and were modified slightly over time to ensure 20% to 30% phosphorylation. The assays were stopped with 15 μL of 180 mM HEPES, pH 7.4, 20 mM EDTA, and 0.2% Coating Reagent 3. The assay plates were placed on a Caliper Life Science LC3000 instrument, and each well was sampled using appropriate separation conditions to measure the unphosphorylated and phosphorylated peptide.
Tyrosine-protein kinase JAK2, sequence (O60674 whole entry): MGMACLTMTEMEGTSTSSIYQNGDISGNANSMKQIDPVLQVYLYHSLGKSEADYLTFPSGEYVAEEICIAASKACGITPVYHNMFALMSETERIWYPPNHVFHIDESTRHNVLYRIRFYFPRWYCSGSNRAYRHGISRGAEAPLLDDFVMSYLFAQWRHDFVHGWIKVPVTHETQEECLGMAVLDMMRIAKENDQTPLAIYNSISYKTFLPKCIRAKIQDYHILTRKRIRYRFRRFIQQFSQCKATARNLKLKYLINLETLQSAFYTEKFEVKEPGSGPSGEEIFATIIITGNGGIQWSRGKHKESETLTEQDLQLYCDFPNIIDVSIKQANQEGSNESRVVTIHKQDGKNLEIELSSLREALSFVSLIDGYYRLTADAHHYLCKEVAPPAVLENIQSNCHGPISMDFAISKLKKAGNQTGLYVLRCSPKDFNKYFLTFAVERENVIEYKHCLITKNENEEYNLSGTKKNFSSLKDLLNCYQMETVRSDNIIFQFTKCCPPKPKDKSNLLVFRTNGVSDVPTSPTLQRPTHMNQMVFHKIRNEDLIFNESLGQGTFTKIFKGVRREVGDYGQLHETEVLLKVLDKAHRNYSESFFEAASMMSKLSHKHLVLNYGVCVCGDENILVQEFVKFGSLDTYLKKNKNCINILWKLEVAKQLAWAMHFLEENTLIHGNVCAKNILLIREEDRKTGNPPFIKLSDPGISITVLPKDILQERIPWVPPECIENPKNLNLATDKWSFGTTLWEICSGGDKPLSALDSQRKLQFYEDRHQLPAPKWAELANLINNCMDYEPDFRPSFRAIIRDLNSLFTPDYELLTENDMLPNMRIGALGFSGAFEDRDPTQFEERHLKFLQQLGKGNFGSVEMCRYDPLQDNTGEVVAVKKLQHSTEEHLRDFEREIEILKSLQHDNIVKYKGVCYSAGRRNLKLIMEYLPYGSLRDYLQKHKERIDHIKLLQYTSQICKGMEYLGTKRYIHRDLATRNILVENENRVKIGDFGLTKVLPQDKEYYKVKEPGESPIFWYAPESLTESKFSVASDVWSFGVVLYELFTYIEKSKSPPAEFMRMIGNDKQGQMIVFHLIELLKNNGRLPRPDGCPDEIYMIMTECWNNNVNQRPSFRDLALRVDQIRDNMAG

Non-receptor tyrosine-protein kinase TYK2, sequence (P29597 whole entry): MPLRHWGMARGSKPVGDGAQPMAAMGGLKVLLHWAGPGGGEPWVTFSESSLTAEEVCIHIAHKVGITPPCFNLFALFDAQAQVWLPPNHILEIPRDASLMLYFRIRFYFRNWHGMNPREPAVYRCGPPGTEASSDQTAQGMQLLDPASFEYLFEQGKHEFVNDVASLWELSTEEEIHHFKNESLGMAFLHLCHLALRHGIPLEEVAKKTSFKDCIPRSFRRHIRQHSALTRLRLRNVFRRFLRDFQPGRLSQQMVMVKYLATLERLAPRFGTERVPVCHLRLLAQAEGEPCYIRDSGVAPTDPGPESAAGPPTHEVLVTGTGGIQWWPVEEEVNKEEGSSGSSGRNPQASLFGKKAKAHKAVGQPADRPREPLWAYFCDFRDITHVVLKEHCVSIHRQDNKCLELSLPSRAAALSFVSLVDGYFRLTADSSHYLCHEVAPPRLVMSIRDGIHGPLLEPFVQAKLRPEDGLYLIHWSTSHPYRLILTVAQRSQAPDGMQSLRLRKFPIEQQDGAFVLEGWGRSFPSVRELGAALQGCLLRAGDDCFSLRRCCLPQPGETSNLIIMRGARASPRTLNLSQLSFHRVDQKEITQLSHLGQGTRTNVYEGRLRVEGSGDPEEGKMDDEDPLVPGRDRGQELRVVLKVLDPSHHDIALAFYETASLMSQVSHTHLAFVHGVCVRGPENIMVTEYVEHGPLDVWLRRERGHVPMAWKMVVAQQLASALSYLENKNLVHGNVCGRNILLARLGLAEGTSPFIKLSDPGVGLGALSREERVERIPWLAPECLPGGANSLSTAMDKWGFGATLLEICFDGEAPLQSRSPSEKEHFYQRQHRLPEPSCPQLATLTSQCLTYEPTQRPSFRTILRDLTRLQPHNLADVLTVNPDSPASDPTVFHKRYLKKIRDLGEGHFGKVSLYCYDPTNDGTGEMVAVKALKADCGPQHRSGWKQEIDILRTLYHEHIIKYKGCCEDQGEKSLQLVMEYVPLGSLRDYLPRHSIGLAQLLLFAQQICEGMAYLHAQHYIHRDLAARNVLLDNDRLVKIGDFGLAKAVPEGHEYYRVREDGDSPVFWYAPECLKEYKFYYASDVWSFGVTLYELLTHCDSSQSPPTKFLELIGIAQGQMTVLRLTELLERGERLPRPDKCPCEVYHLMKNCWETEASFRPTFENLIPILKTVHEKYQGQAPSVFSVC

Take `Cn1cc(-c2cn3nccc3c(-c3cnn([C@]4(CC#N)C[C@@H](CC#N)C4)c3)n2)cn1`: the IC50 is 0.024 µM in test [1], 0.764 µM in test [2], more than 10 µM in test [3] and 0.159 µM in test [4].
